This is an account of results in patent US4981788A, “Novel acetylpolyamine amidohydrolase” (Kyowa Hakko Kogyo Co., Ltd., priority 1987, dated 1991).

SMILES strings stand for the structures. Entries after “also recorded” stand apart in the source; their conditions may differ. Where a name gives a salt, the structure may show the parent alone. Read-outs that look alike come from different tables or passages of the source.

For test [1], the system named is E1: Enzyme derived from Streptomyces avellaneus. To be noted: concentration of 1mM; acetylputrescine as substrate; cited from earlier work.
The test system of test [2] is E2: Enzyme derived from Arthrobacter sp. Particulars: concentration of 1mM; acetylputrescine as substrate; cited from earlier work.
In test [3] the test system is E3: Enzyme derived from Micrococcus luteus. Particulars: cited from earlier work.
Test [4] addresses T1, acetylpolyamine amidohydrolase (the present enzyme, partially purified product) (Mycoplana ramosa, UniProt Q48935).
T1 construct: novel acetylpolyamine amidohydrolase of the present invention accumulated within the grown cells; made in house; host or cells: Mycoplana (natural producer; cells grown in culture)
T1 sequence (Q48935 1-341): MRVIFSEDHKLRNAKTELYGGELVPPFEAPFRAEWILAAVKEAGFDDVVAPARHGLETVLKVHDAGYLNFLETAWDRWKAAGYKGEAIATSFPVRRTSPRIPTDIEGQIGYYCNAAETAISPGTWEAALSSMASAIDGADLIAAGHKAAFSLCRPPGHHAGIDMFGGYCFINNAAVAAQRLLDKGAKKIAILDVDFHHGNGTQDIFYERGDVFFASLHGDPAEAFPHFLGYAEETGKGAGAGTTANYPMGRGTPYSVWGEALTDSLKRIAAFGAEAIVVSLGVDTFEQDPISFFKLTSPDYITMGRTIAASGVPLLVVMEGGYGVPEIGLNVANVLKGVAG
In words: Effects of inhibitors and metal ions, partially purified present enzyme. The class given is biochemical, Mycoplana bullata. Particulars: for Inhibition of the present enzyme (in words): partially purified product; for inhibition at 1000 µM: read-out: Relative activity in presence of inhibitor/metal ion, the present enzyme. Here is the method:
Activity of the present enzyme (partially purified products) is measured according to the following procedure. That is, 0.1 ml of an enzyme solution is added to a reagent solution consisting of 1.5 ml of 0.1 M phosphate buffer (pH 7.0), 0.05 ml of 50 mM acetylpolyamine, 0.4 U of putrescine oxidase (when acetylputrescine, acetylcadaverine or acetylspermidine is used as substrate) or polyamine oxidase (when acetylspermidine or acetylspermine is used as substrate), 0.5 ml of 2.4 mM 4-aminoantipyrine, 0.5 ml of 42 mM phenol and 20 U of peroxidase. The mixture is incubated at 37° C., and the absorbance of quinoneimine pigment formed at 500 nm is measured.
The effects of various inhibitors and metal ions upon the present enzyme and the other known enzymes were examined using acetylputrescine as substrate.

The target of test [5] is T2, acetylpolyamine amidohydrolase (the present enzyme, product purified to homogeneity) (Mycoplana ramosa, UniProt Q48935).
T2 construct: novel acetylpolyamine amidohydrolase of the present invention accumulated within the grown cells; made in house; host or cells: Mycoplana (natural producer)
T2 sequence (Q48935 1-341): T1 sequence (Q48935 1-341)
In words: Effects of various compounds upon enzyme activity, product purified to homogeneity (Method 1). The class given is biochemical, Mycoplana bullata. Particulars: for activity at 100 µM: read-out: Relative Activity (%) at 0.1 mM. From the text: [Method 1] (Standard assay)
In this standard method for measuring the activity of acetylpolyamine amidohydrolases, the enzyme being tested is allowed to react with acetylputrescine as substrate to produce putrescine, which is in turn oxidized with putrescine oxidase. Hydrogen peroxide thus formed is then subjected to oxidative condensation with phenol and 4-aminoantipyrine in the presence of horseradish peroxidase to form quinoneimine pigment. The rate of increase in the absorbance of a colored reaction solution at 500 nm is measured with a spectrophotometer.
The above reagents, (b) through (h), were put in a cuvette (d: 1.0 cm) and the mixture was preincubated at 37° C. for 2 minutes. The substrate solution (a) was then added and the resulting mixture was held at 37° C., absorbance at 500 nm was measured over a period of 3 to 5 minutes, and the change in absorbance per minute (ΔODsample) was determined from the linear portion of the plotted curve. For control, the same procedure as above was carried out, using distilled water as reference.
One unit of acetylpolyamine amidohydrolase is defined as its amount necessary to hydrolyze 1 μmole of acetylputrescine at 37° C. for one minute (or the amount necessary to form 0.5 μmole of quinoneimine pigment formed in the method for measuring the enzyme activity described above).
To 50 mM Tris-HCl buffer (pH 7.0) containing the present enzyme, was added each of the compounds being tested to a concentration of 0.1 mM or 1.0 mM. The mixture was incubated at 37° C. for 10 minutes, a sample solution was taken out, and its residual activity was measured according to the procedure described in [Method 1].

[6] abbreviates: concentration of 1mM, acetylputrescine as substrate.
[7] abbreviates: concentration of 1mM, acetylputrescine as substrate, no addition = 100%.
The mark [8] stands for this setting: compound 0.1 mM, 50 mM Tris-HCl pH 7.0, 37° C., 10 minutes, residual activity.
Setting [9] is: compound 1.0 mM, 50 mM Tris-HCl pH 7.0, 37° C., 10 minutes, residual activity.
The mark [10] stands for this setting: compound 1.0 mM, 50 mM Tris-HCl pH 7.0, 37° C., 10 minutes, residual activity, read-out: Relative Activity (%) at 1.0 mM.

`[Ni+2]` [Ni^2+]: in test [1], the “Relative activity in presence of inhibitor/metal ion, E1” value is 3%. The “Relative activity in presence of inhibitor/metal ion, E2” value in test [2] was 55%. For the same compound, the “Relative activity in presence of inhibitor/metal ion, E3” value in test [3] (setting [6]) was 33%. Further, the “Relative activity in presence of inhibitor/metal ion, the present enzyme” value in test [4] (setting [7]) is on record as 81%. Besides, the “Inhibition of the present enzyme (in words)” value (“Inhibition … (in words)” for short) in test [4] is given as “hardly inhibited”.

Turning to `[Cl-].[Cl-].[Zn+2]` [ZnCl2], the “Relative Activity (%) at 0.1 mM” value in test [5] (setting [8]) was determined as 1%. Besides, the “Relative Activity (%) at 1.0 mM” value in test [5] (setting [9]) is on record as 22%.

Take `c1cnc2c(c1)ccc1cccnc12` [o-Phenanthroline]: the “Relative activity in presence of inhibitor/metal ion, E1” value in test [1] is recorded as 14%. The “Relative activity in presence of inhibitor/metal ion, E2” value in test [2] is listed as 94%. Also, the activity at 1000 µM in test [5] (setting [10]) is 95%. In test [5] (purified to homogeneity), the “Inhibition … (in words)” value is “no inhibitory action”. Moreover, the “Relative activity in presence of inhibitor/metal ion, E3” value in test [3] (setting [6]) is 33%. In addition, in test [4] (setting [7]), the inhibition at 1000 µM was determined as 68%.

`[Cu+2]` [Cu^2+]: in test [3] (setting [6]), the “Relative activity in presence of inhibitor/metal ion, E3” value was 26%. Also, in test [4] (setting [7]), the “Relative activity in presence of inhibitor/metal ion, the present enzyme” value is given as 99%.

`[Mg+2]` [Mg^2+]: in test [1], the “Relative activity in presence of inhibitor/metal ion, E1” value is reported as 104%. For the same compound, the “Relative activity in presence of inhibitor/metal ion, E2” value in test [2] is 112%. For the same compound, the “Inhibition … (in words)” value in test [5] (purified to homogeneity) is recorded as “inhibited”. Moreover, in test [3] (setting [6]), the “Relative activity in presence of inhibitor/metal ion, E3” value was 99%. The “Relative activity in presence of inhibitor/metal ion, the present enzyme” value in test [4] (setting [7]) is given as 97%.

Take `O=C(O)c1cc[c]([Hg][Cl])cc1` [pCMB, -p(Chloromercuri)benzoic acid]: in test [1], the “Relative activity in presence of inhibitor/metal ion, E1” value was 0%. The “Relative activity in presence of inhibitor/metal ion, E2” value in test [2] is on record as 8%. Besides, the “Relative Activity (%) at 0.1 mM” value in test [5] (setting [8]) is 107%. In test [5] (setting [9]), the “Relative Activity (%) at 1.0 mM” value is 90%. For the same compound, in test [5] (purified to homogeneity), the “Inhibition … (in words)” value is “slightly inhibited”. For the same compound, the “Relative activity in presence of inhibitor/metal ion, E3” value in test [3] (setting [6]) is 98%. For the same compound, in test [4] (setting [7]), the “Relative activity in presence of inhibitor/metal ion, the present enzyme” value was determined as 4%.

With `[Cl][Ni][Cl]` [NiCl2], in test [5] (setting [9]), the “Relative Activity (%) at 1.0 mM” value is recorded as 90%.

For the compound `[Mn+2]` [Mn^2+], in test [1], the “Relative activity in presence of inhibitor/metal ion, E1” value is listed as 82%. Besides, the “Relative activity in presence of inhibitor/metal ion, E2” value in test [2] is 101%. Also, the “Relative activity in presence of inhibitor/metal ion, E3” value in test [3] (setting [6]) is 50%. In addition, the “Relative activity in presence of inhibitor/metal ion, the present enzyme” value in test [4] (setting [7]) was 124%.

On to `[Cl-].[Cl-].[Co+2]` [CoCl2], for which, in test [5] (setting [9]), the “Relative Activity (%) at 1.0 mM” value is recorded as 105%.

Consider `NNC(N)=O` [Semicarbazide hydrochloride], for which, in test [5] (setting [8]), the activity at 100 µM is 103%. In addition, the activity at 1000 µM in test [5] (setting [10]) amounted to 91%.

As to `Oc1cccc2cccnc12` [8-Hydroxyquinoline], the “Inhibition … (in words)” value in test [5] is “considerably inhibited”. Moreover, in test [5] (pH 7), the “Relative Activity (%) at 0.1 mM” value worked out at 57% and the “Relative Activity (%) at 1.0 mM” value is 66%. In addition, the “Relative activity in presence of inhibitor/metal ion, E3” value in test [3] is 98. In addition, the “Relative activity in presence of inhibitor/metal ion, the present enzyme” value in test [4] came out at 3.

`O=[N+]([O-])[O-].[Ag+]` [AgNO3]: the “Relative Activity (%) at 0.1 mM” value in test [5] (setting [8]) was 107%. Moreover, in test [5] (setting [9]), the “Relative Activity (%) at 1.0 mM” value came out at 41%. In addition, in test [5] (purified to homogeneity), the “Inhibition … (in words)” value is reported as “inhibited”.

Consider `NO` [Hydroxylamine], for which, in test [4] (setting [7]), the “Relative activity in presence of inhibitor/metal ion, the present enzyme” value worked out at 24%.

For `[Cl-].[Cl-].[Mg+2]` [MgCl2], the “Relative Activity (%) at 0.1 mM” value in test [5] (setting [8]) was 87%. For the same compound, the “Relative Activity (%) at 1.0 mM” value in test [5] (setting [9]) was 85%.

Regarding `c1ccc(-c2ccccn2)nc1` [a,a'-Dipyridyl], in test [5] (setting [10]), the activity at 1000 µM was 92%.

In the case of `O=C(O)CN(CCN(CC(=O)O)CC(=O)O)CC(=O)O` [EDTA · 2Na], the “Inhibition … (in words)” value in test [5] was “no inhibitory action”. Further, the activity at 1000 µM in test [5] (pH 7, read-out: Relative Activity (%) at 1.0 mM) was determined as 97%.

`[N-]=[N+]=[N-].[Na+]` [NaN3]: in test [1], the “Relative activity in presence of inhibitor/metal ion, E1” value is 93%. In addition, the “Relative activity in presence of inhibitor/metal ion, E2” value in test [2] is recorded as 99%. For the same compound, the “Relative Activity (%) at 1.0 mM” value in test [5] (setting [9]) is reported as 95%. Moreover, in test [3] (setting [6]), the “Relative activity in presence of inhibitor/metal ion, E3” value was 98%. In addition, the “Relative activity in presence of inhibitor/metal ion, the present enzyme” value in test [4] (setting [7]) is listed as 90%.

With `O=S(=O)(F)Cc1ccccc1` [Phenylmethanesulfonyl fluoride], the “Relative Activity (%) at 0.1 mM” value in test [5] (setting [8]) is 86%. Further, the “Relative Activity (%) at 1.0 mM” value in test [5] (setting [9]) is 90%. The “Inhibition … (in words)” value in test [5] (purified to homogeneity) is listed as “slightly inhibited”.

Consider `[Zn+2]` [Zn^2+], for which, in test [1], the “Relative activity in presence of inhibitor/metal ion, E1” value is on record as 3%. In addition, in test [2], the “Relative activity in presence of inhibitor/metal ion, E2” value was 32%. The “Inhibition … (in words)” value in test [5] (purified to homogeneity) is reported as “inhibited; also recorded: most remarkably”; in test [4], “hardly inhibited”. For the same compound, the “Relative activity in presence of inhibitor/metal ion, E3” value in test [3] (setting [6]) is given as 4%. The “Relative activity in presence of inhibitor/metal ion, the present enzyme” value in test [4] (setting [7]) was 100%.

As for `CCN(CC)C(=S)S` [DDC, Diethyldithiocarbamate], the activity at 100 µM in test [5] (setting [8]) stood at 93%. Moreover, the activity at 1000 µM in test [5] (setting [10]) came to 94%. Further, in test [4] (setting [7]), the inhibition at 1000 µM turned out to be 0%.
